# Laboratory results from patent US9920092B1, “Composition having anti-oxidant, anti-aging, and autophagy activities and uses thereof” (Incospharm Corporation, priority 2017, dated 2018).
# Experiments:
# [1] = ABTS radical scavenging assay (in-vitro anti-oxidant activity); assay type: biochemical; details: absorbance at OD734 after 30 minutes; FIG. 3
# Description: In order to measure in-vitro anti-oxidant activity of the compound represented by Structural Formula according to the present invention, ABTS radical scavenging assay was performed. When 2,2′-azino-bis-(3-ethylbenzothiazoline-6-sulfonic acid (ABTS) reacts with potassium persulfate, ABTS^+, which is an active cation, is formed, but in the case in which an anti-oxidant material is present in a test sample, ABTS^+ is removed by anti-oxidant activity, a greenish blue color, which is a peculiar color of ABTS^+, is decolorized, which may be measured as an absorbance value, thereby making it possible to evaluate the anti-oxidant activity.
# As a specific experimental method, after mixing ABTS diammonium salt (7 mM) and potassium persulfate (2.45 mM) with each other in distilled water in order to activate stabilized ABTS diammonium salt, a reaction was carried out at room temperature for 16 hours, thereby forming an ABTS radical. After diluting the resultant in a phosphate buffer solution (PBS) to prepare a reaction solution so that an OD734 value was about 1.5, the reaction solution was mixed with vitamin C (Vit C), pyrrolidone carboxylic acid (PCA), or the compound represented by Structural Formula 1 disclosed in the present invention to induce a reaction. After 30 minutes, an amount of the remaining activated ABTS radical was analyzed by measuring absorbance at OD734.
# [2] = system: human epidermal keratinocyte cells; experiment: Intracellular ROS by DCFH-DA dye and FACS scanning after H2O2; assay type: cell-based; details: 100 uM pre-treatment for 48 hours, 10 uM H2O2 10 minutes, FIG. 4
# Description: In order to measure an intercellular anti-oxidant activity of the compound represented by Structural Formula 1 according to the present invention, an amount of intracellular reactive oxygen species (ROS) was measured using 6-carboxy-2′,7′-dichlorofluorescein diacetate (DCFH-DA) dye and fluorescence activated cell sorter (FACS) scanning.
# As a specific experimental method, human epidermal keratinocyte cells (Gibco BRL) were uniformly seeded onto a 600 culture dish (3×10^5 cells/dish) and cultured in an epilife medium (Gibco BRL) containing human keratinocyte growth supplement (HKGS, Gibco BRL) at 37° C. in a 5% CO2 incubator for 24 hours. Thereafter, the test materials (H2O2, vitamin C, and the compound represented by Structural Formula 1) were each dissolved in water at a concentration of 10 mM to prepare a concentrate, the prepared concentrate was diluted so as to have a concentration of 100 uM using the medium and put into a culture dish to treat the cells. Then, culturing was performed for 48 hours, and after the culturing was terminated, the medium was removed and the resultant was washed, thereby preparing a subsequent experiment. Next, 10 uM hydrogen peroxide was added thereto, the culturing was performed for 10 minutes, the resultant was washed again. […]
# [3] = system: genes associated with anti-oxidation and autophagy; experiment: cDNA microarray of genes associated with anti-oxidation and autophagy; assay type: cell-based
# Description: (§1) In order to find a cause of increasing an intracellular anti-oxidant activity by treatment with the compound represented by Structural Formula 1, cDNA microarray was performed, thereby confirming that transcription of several kinds of important genes associated with anti-oxidation and autophagy was increased. Proteins for the selected genes were quantified by western blot.
# [4] = system: human epidermal keratinocyte cells; experiment: Western blot of anti-oxidant and autophagy-related protein expression; assay type: cell-based; details: 50, 100, or 200 um, 48 hours
# Description: as §1
# As a specific experimental method, after treating human epidermal keratinocyte cells (Gibco BRL) with the compound represented by Structural Formula 1 at a concentration of 50, 100, or 200 um while culturing the cells in a 600 culture dish, culturing was performed for 48 hours. After the culturing was terminated, a medium was removed, a RIPA lysis buffer containing protease inhibitor cocktail (2 ug/ml aprotinin, 5 ug/ml leupeptin, 1 ug/ml pepstatin A, 1 mM PMSF, 5 mM EDTA and 1 mM EGTA) was added thereto, thereby obtaining an entire cell homogenate. Thereafter, total proteins were quantified through microBCA assay (SMART micro BCA protein assay kit, Intron biotechnology), the cell homogenate (10 to 20 ug) was loaded on a SDS-PAGE gel, and respective proteins were isolated by electrophoresis and moved to a nitrocellulose membrane. […]
# [5] = system: human epidermal keratinocyte cells; experiment: LC3 puncta assay (confocal microscope); assay type: cell-based; details: 100 uM, 48 hours, anti-LC3 immunostaining; FIG. 7
# Description: As a specific experimental method, after 200 ul of poly-L-lysine (sigma) was put into each well of a 15 ul slide glass (Ibidi) and a reaction was carried out at room temperature for 30 minutes, followed by coating, human epidermal keratinocyte cells (Gibco BRL) were cultured and treated with respective test materials (rapamycin, compound represented by Structural Formula 1, and vitamin C) at a concentration of 100 uM. After the culturing for 48 hours was terminated, a medium was removed, and the cultured cells were fixed and blocked using formalin. Thereafter, the cells were labeled with anti-LC3 (Abfrontier) and anti-rabbit IgG-FITC (sigma), nucleus was stained with 4′,6′-diamidine-2′-phenylindole dihydrochloride (DAPI), and then, whether or not a puncta was formed in the cells was confirmed using a confocal microscope.
# [6] = system: human dermal fibroblast cells; experiment: Electron microscopy assay of autophagy structures; assay type: cell-based; details: 50 uM, 24 hours; FIGS. 8 and 9
# Description: As a specific experimental method, after treating human dermal fibroblast cells with the compound represented by Structural Formula 1 at a concentration of 50 uM while culturing the cells, the culturing was performed for 24 hours. After the culturing was terminated, the cells were fixed, a paraffin block was prepared, and then, cell images were analyzed using an electron microscope.
# An autophagy pathway starts from formation of an isolated precursor membrane having a cup shape, referred to as phagophore. The phagophore may form a double membrane […] known as autophagosome through initiation, nucleation, elongation, and closure processes. The autophagosome carries condensed proteins, organelles or pathogenic bacteria in damaged cells to lysosome in a captured state, and fused with lysosome to form autophagolysosome. The autophagolysosome decomposes the captured constituents in an acidic environment mediated by acid hydrolase.
# [7] = system: human epidermal keratinocyte cells; experiment: Cell protection effect against H2O2 oxidative stress (MTT); assay type: cell-based; details: then 1 mM H2O2 4 hours
# Description: Through the results in Examples 2 to 6, it was confirmed that expression of the anti-oxidant proteins and the autophagy-related proteins in cells was increased by the compound represented by Structural Formula 1, and thus, autophagy in the cells was activated. Therefore, in order to confirm whether or not activation of autophagy as described above may protect cells from cytotoxicity caused by ROS, follow-up research into a cell protection effect was conducted.
# As a specific experiment method, after treating human epidermal keratinocyte cells (Gibco BRL) with respective test materials (vitamin C and the compound represented by Structural Formula 1) at 0.1 mM or 1 mM, respectively, while culturing the cells in a 96-well culture dish, the cells were cultured for 24 hours or 48 hours, the resultant was washed, and 1 mM H2O2 was added thereto, and additional culturing was performed for 4 hours. Thereafter, each of the wells was washed, 10 ul of 3-(4,5-dimethylthiazol-2-yl)-2,5-diphenyltetrazolium bromide (MTT) dissolved in PBS (5 mg/ml) was added to each of the wells, and a reaction was carried out at 37° C. under a 5% CO2 condition. Thereafter, a supernatant was carefully removed, MTT formazan precipitated in the cells was dissolved in 100 ul of DMSO, and then absorbance at OD570 was measured using an enzyme-linked immunosorbent assay (ELISA) reader.
Compound,scavenging activity on the activated ABTS radical [1],amount of intracellular ROS formed by treatment with H2O2 [2],transcription of genes associated with anti-oxidation and autophagy [3],"expression of proteins having high anti-oxidant activities (Prx2 monomer, Prx3, HSP70 based Grp75, HSP90B1, EPHX2, stanniocalcin2) ([4]; FIG. 5)","expression of proteins important in autophagy and detoxification activities (BiP, FoxO1, sirtuin5) ([4]; FIG. 6)",formation of LC3 puncta in the cells [5],number of autophagolysosome [6],number of autophagosome (increase by treatment) [6] [times],number of phagophore [6],"cell viability ([7]; 0.1 mM or 1 mM, pre-treatment for 24 hours, FIG. 10)","cell viability ([7]; 0.1 mM or 1 mM, pre-treatment for 48 hours, FIG. 11)","cell viability ([7]; 1 mM, pre-treatment for 24 hours, FIG. 10)","cell viability ([7]; 1 mM, pre-treatment for 48 hours, FIG. 11)","viability at 100 µM ([7]; Homo sapiens, Keratinocyte, 0.1 mM, pre-treatment for 24 hours, FIG. 10) [%]"
"O=C(O)CN(CCCC[C@H](NC(=O)[C@H](CCCCN(CC(=O)O)CC(=O)O)N(CC(=O)O)CC(=O)O)C(=O)O)CC(=O)O [2-[2,6-bis-(bis-carboxymethyl-amino)-hexanoyl-amino]-6-(bis-carboxymethyl-amino)-hexanoic acid]",concentration-dependent scavenging activity,almost disappeared,increased,increased,increased,a large amount of a LC puncta,significantly increased,≥ 2,significantly increased,improved,improved,–,–,–
"O=C1O[C@H]([C@@H](O)CO)C(O)=C1O [vitamin C, reference compound]",concentration-dependent scavenging activity,not decreased,–,–,–,not increased,–,–,–,–,–,rather deteriorated,rather deteriorated,~95
